Laboratory results from US12552844B2, “De-epitoped alpha gliadin and use of same for the management of celiac disease and gluten sensitivity” (Ukko Inc., priority 2019, dated 2026).
pIC50: −log10 of the molar value. Where no end group is shown, it is not given here.

Target: MHC II molecules
Assay: MHC/peptide competition binding assay with a radiolabelled known MHC binding peptide
Conditions: purified MHC, incubation 2-4 days, non-binding defined as IC50≥30,000 nM
Description: Measurement of MHC/peptide interactions: Computational prediction algorithm was used to generate a list of putative non-binding peptides. Those peptides were synthesized and binding to MHC was measured as described in Sidney J et al, 2013.
Briefly, competition assays using different concentrations of WT and modified gluten peptides are conducted by diluting the peptides in NP40 buffer, and incubation for 2-4 days with purified MHC and a radiolabelled known MHC binding peptide. MHC II molecules are purified by affinity chromatography, and peptides are radiolabeled using the chloramine T method. After an incubation period, the bound and unbound radiolabeled species are separated, and their relative amounts are determined by either size-exclusion gel-filtration chromatography or monoclonal antibody capture of MHC. The percent of bound radioactivity is then determined. For each modified peptide, IC50 values of WT and modified peptide are calculated. The validated gluten peptide epitopes are analyzed for MHC binding as a positive control. Some of the peptides are tested also in a deamidated form.

| Sequence | pIC50 |
| --- | --- |
| PQPFPPLPYPQPQSF [Variant P3i] | < 4.40 |
| PYSQPHRPYHQPQPF [Variant P3e] | < 4.40 |
| QLPYSQPHRPYHQPQ [Variant P2d] | < 4.40 |
| SLPMPQPSLRYRQPS [Variant P2i] | < 4.40 |
| TLPSPQPTLGYGQPT [Variant P2h] | < 4.40 |

Second part, the sequence after the results:

| pIC50 | Sequence |
| --- | --- |
| < 4.40 | FPPQPHPFPPQPQPF [Variant P3h] |
| < 4.40 | HLPGPQPHLSYPQPH [Variant P2e] |
| 4.41 | LQLQPFPQPHLFPPQ [Variant P1c] |
| 4.51 | LQLQPFPQPPLPYGQ [Variant P1e] |
| < 4.40 | PGGQPHLPGGQPQPF [Variant P3g] |
